PubChem BioAssay (NCI)
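Briefly, cells in 96-well plates were exposed to five compound concentrations for 48 h, and endpoints were estimated by linear interpolation. Abbreviation: GI50, concentration required for 50% inhibition of growth. Definition used: TGI = concentration required for complete inhibition of growth.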

Assays:
Experiment in all cases: NCI-60 cell line screen, 48 h
BT-549 breast = system: BT-549 breast
HCT-15 colon = system: HCT-15 colon
NCI-H226 lung = system: NCI-H226 lung
HT29 colon = system: HT29 colon
NCI-H522 lung = system: NCI-H522 lung
PC-3 prostate = system: PC-3 prostate
SK-OV-3 ovarian = system: SK-OV-3 ovarian
MDA-MB-435 = system: MDA-MB-435
MDA-MB-231 breast = system: MDA-MB-231 breast
RPMI-8226 leukemia = system: RPMI-8226 leukemia
TK-10 renal = system: TK-10 renal
HCT-116 colon = system: HCT-116 colon
MALME-3M melanoma = system: MALME-3M melanoma
SNB-75 CNS = system: SNB-75 CNS
M14 melanoma = system: M14 melanoma
HOP-92 NSCLC = system: HOP-92 NSCLC
LOX IMVI melanoma = system: LOX IMVI melanoma
SR leukemia = system: SR leukemia
HCC-2998 colon = system: HCC-2998 colon
NCI/ADR-RES ovarian = system: NCI/ADR-RES ovarian
HS 578T breast = system: HS 578T breast
UACC-257 melanoma = system: UACC-257 melanoma
CCRF-CEM leukemia = system: CCRF-CEM leukemia
OVCAR-8 ovarian = system: OVCAR-8 ovarian
SK-MEL-28 melanoma = system: SK-MEL-28 melanoma
U251 CNS = system: U251 CNS
DU-145 prostate = system: DU-145 prostate
MCF7 breast = system: MCF7 breast
KM12 colon = system: KM12 colon
OVCAR-5 ovarian = system: OVCAR-5 ovarian
IGROV1 ovarian = system: IGROV1 ovarian
ACHN renal = system: ACHN renal
RXF 393 renal = system: RXF 393 renal
SF-268 CNS = system: SF-268 CNS
NCI-H23 lung = system: NCI-H23 lung
SW-620 colon = system: SW-620 colon
786-0 renal = system: 786-0 renal
SNB-19 CNS = system: SNB-19 CNS
A498 renal = system: A498 renal
MOLT-4 leukemia = system: MOLT-4 leukemia
SN12C renal = system: SN12C renal
EKVX NSCLC = system: EKVX NSCLC
T-47D breast = system: T-47D breast
SF-295 CNS = system: SF-295 CNS
A549 NSCLC = system: A549 NSCLC
UO-31 renal = system: UO-31 renal
UACC-62 melanoma = system: UACC-62 melanoma
NCI-H460 lung = system: NCI-H460 lung
SK-MEL-5 melanoma = system: SK-MEL-5 melanoma
K-562 leukemia = system: K-562 leukemia
OVCAR-4 ovarian = system: OVCAR-4 ovarian
OVCAR-3 ovarian = system: OVCAR-3 ovarian
MDA-N = system: MDA-N
CAKI-1 renal = system: CAKI-1 renal
HOP-62 NSCLC = system: HOP-62 NSCLC
SK-MEL-2 melanoma = system: SK-MEL-2 melanoma
COLO 205 colon = system: COLO 205 colon
HL-60(TB) leukemia = system: HL-60(TB) leukemia
SF-539 CNS = system: SF-539 CNS

CCN(CC)C(=S)SS(=O)(=O)c1ccc(N)cc1
GI50 (BT-549 breast): > 100 µM | TGI (BT-549 breast): > 100 µM | GI50 (HCT-15 colon): > 100 µM | TGI (HCT-15 colon): > 100 µM | GI50 (NCI-H226 lung): 99.2 µM | TGI (NCI-H226 lung): > 100 µM | TGI (HT29 colon): > 100 µM | TGI (NCI-H522 lung): > 26.6 µM | GI50 (PC-3 prostate): 90.8 µM | TGI (PC-3 prostate): > 100 µM | TGI (SK-OV-3 ovarian): > 100 µM | GI50 (MDA-MB-435): > 100 µM | TGI (MDA-MB-435): > 100 µM | GI50 (MDA-MB-231 breast): > 100 µM | TGI (MDA-MB-231 breast): > 100 µM | TGI (RPMI-8226 leukemia): > 100 µM | GI50 (TK-10 renal): > 100 µM | TGI (TK-10 renal): > 100 µM | GI50 (HCT-116 colon): > 100 µM | TGI (HCT-116 colon): > 100 µM | GI50 (MALME-3M melanoma): 46.2 µM | TGI (MALME-3M melanoma): > 100 µM | GI50 (SNB-75 CNS): 48.5 µM | TGI (SNB-75 CNS): > 100 µM | TGI (M14 melanoma): > 100 µM | TGI (HOP-92 NSCLC): > 100 µM | GI50 (LOX IMVI melanoma): > 100 µM | TGI (LOX IMVI melanoma): > 100 µM | TGI (SR leukemia): > 100 µM | TGI (HCC-2998 colon): > 100 µM | GI50 (NCI/ADR-RES ovarian): > 100 µM | TGI (NCI/ADR-RES ovarian): > 100 µM | TGI (HS 578T breast): > 100 µM | GI50 (UACC-257 melanoma): > 100 µM | TGI (UACC-257 melanoma): > 100 µM | GI50 (CCRF-CEM leukemia): > 100 µM | TGI (CCRF-CEM leukemia): > 100 µM | GI50 (OVCAR-8 ovarian): > 100 µM | TGI (OVCAR-8 ovarian): > 100 µM | GI50 (SK-MEL-28 melanoma): > 100 µM | TGI (SK-MEL-28 melanoma): > 100 µM | GI50 (U251 CNS): > 100 µM | TGI (U251 CNS): > 100 µM | GI50 (DU-145 prostate): > 100 µM | TGI (DU-145 prostate): > 100 µM | TGI (MCF7 breast): > 100 µM | TGI (KM12 colon): > 100 µM | TGI (OVCAR-5 ovarian): > 100 µM | TGI (IGROV1 ovarian): > 100 µM | TGI (ACHN renal): > 100 µM | TGI (RXF 393 renal): > 100 µM | GI50 (SF-268 CNS): > 100 µM | TGI (SF-268 CNS): > 100 µM | TGI (NCI-H23 lung): > 100 µM | GI50 (SW-620 colon): > 100 µM | TGI (SW-620 colon): > 100 µM | TGI (786-0 renal): > 100 µM | TGI (SNB-19 CNS): > 100 µM | TGI (A498 renal): > 94.2 µM | TGI (MOLT-4 leukemia): > 100 µM | GI50 (SN12C renal): > 100 µM | TGI (SN12C renal): > 100 µM | TGI (EKVX NSCLC): > 100 µM | TGI (T-47D breast): > 100 µM | GI50 (SF-295 CNS): > 100 µM | TGI (SF-295 CNS): > 100 µM | TGI (A549 NSCLC): > 100 µM | TGI (UO-31 renal): > 100000 nM | TGI (UACC-62 melanoma): > 100 µM | TGI (NCI-H460 lung): > 100 µM | TGI (SK-MEL-5 melanoma): > 100 µM | TGI (K-562 leukemia): > 100 µM | GI50 (OVCAR-4 ovarian): > 100 µM | TGI (OVCAR-4 ovarian): > 100 µM | GI50 (OVCAR-3 ovarian): > 100 µM | TGI (OVCAR-3 ovarian): > 100 µM | TGI (MDA-N): > 100 µM | TGI (CAKI-1 renal): > 90.2 µM | TGI (HOP-62 NSCLC): > 100 µM | TGI (SK-MEL-2 melanoma): > 100 µM | GI50 (COLO 205 colon): > 100 µM | TGI (COLO 205 colon): > 100 µM | GI50 (HL-60(TB) leukemia): > 100 µM | TGI (HL-60(TB) leukemia): > 100 µM

CCCCCCCCCCCCCCCC(=O)Nc1ccn(C2CC(OP(=O)(O)OCC3OC(n4cc(F)c(=O)[nH]c4=O)CC3OC(C)=O)C(CO)O2)c(=O)n1 (configuration not stated)
TGI (BT-549 breast): 62.2 µM | TGI (HCT-15 colon): > 65.4 µM | TGI (NCI-H226 lung): > 100 µM | TGI (HT29 colon): 52.8 µM | TGI (NCI-H522 lung): 37.7 µM | TGI (PC-3 prostate): 25.2 µM | TGI (SK-OV-3 ovarian): > 51.6 µM | TGI (MDA-MB-435): > 94.8 µM | TGI (MDA-MB-231 breast): > 61.5 µM | TGI (RPMI-8226 leukemia): 27.9 µM | TGI (TK-10 renal): > 100 µM | TGI (HCT-116 colon): > 100 µM | TGI (SNB-75 CNS): > 51.6 µM | TGI (M14 melanoma): > 39.7 µM | TGI (HOP-92 NSCLC): > 100 µM | TGI (LOX IMVI melanoma): > 100 µM | TGI (SR leukemia): 22.7 µM | TGI (HCC-2998 colon): > 36.5 µM | TGI (NCI/ADR-RES ovarian): 46.1 µM | TGI (HS 578T breast): 90.9 µM | TGI (UACC-257 melanoma): > 100 µM | TGI (CCRF-CEM leukemia): > 100 µM | TGI (OVCAR-8 ovarian): > 52.3 µM | TGI (SK-MEL-28 melanoma): > 100 µM | TGI (SF-539 CNS): > 39.5 µM | TGI (U251 CNS): 71.8 µM | TGI (DU-145 prostate): > 100 µM | TGI (MCF7 breast): > 100 µM | TGI (KM12 colon): 48.1 µM | TGI (OVCAR-5 ovarian): > 64.5 µM | TGI (IGROV1 ovarian): > 100 µM | TGI (ACHN renal): 3.54 µM | TGI (RXF 393 renal): > 71 µM | TGI (SF-268 CNS): > 44.4 µM | TGI (NCI-H23 lung): > 63.9 µM | TGI (SW-620 colon): > 100 µM | TGI (786-0 renal): > 100 µM | TGI (SNB-19 CNS): > 63.2 µM | TGI (A498 renal): > 100 µM | TGI (MOLT-4 leukemia): 34.4 µM | TGI (SN12C renal): > 49.9 µM | TGI (EKVX NSCLC): > 100 µM | TGI (T-47D breast): > 100 µM | TGI (SF-295 CNS): > 45.2 µM | TGI (A549 NSCLC): > 41.3 µM | TGI (UO-31 renal): 2750 nM | TGI (UACC-62 melanoma): > 47.2 µM | TGI (NCI-H460 lung): > 100 µM | TGI (SK-MEL-5 melanoma): > 96.5 µM | TGI (K-562 leukemia): > 100 µM | TGI (OVCAR-4 ovarian): > 100 µM | TGI (OVCAR-3 ovarian): > 100 µM | TGI (MDA-N): > 100 µM | TGI (CAKI-1 renal): > 35.7 µM | TGI (HOP-62 NSCLC): 13.3 µM | TGI (SK-MEL-2 melanoma): > 63.4 µM | TGI (COLO 205 colon): > 66.3 µM | TGI (HL-60(TB) leukemia): > 21.9 µM
